Results: patent US5665386A, “Use of essential oils to increase bioavailability of oral pharmaceutical compounds” (priority 1995, dated 1997)
Values joined by “and” are separate entries in the source; they are usually repeats but may differ in a detail not shown here. Equal entries are not always repeated. Where two headings read alike, the source gives them in different places.

Test system: rat cytochrome P450 3A
[1] = Table 2, 0.0001 wt. % component
[2] = Table 2, repeat 0.0001 wt. % (SD in parentheses)

## CC12CCC(CC1=O)C2(C)C (racemic) [Camphor-(±), 1,7,7-Trimethylbicyclo [2.2.1] heptan-2-one]
microsomes, pH 7.4
  % inhibition of cyclosporine metabolism, repeat: 53 (3) %

## C=CC(C)(O)CCC=C(C)C (racemic) [Linalool-(±), 3,7-Dimethyl-1,6-octadien-3-ol]
[1]
  % inhibition of cyclosporine metabolism: 41%
Table 2, 0.001 wt. % component
  % inhibition of cyclosporine metabolism: 72.0%
Table 2, 0.01 wt. % component
  % inhibition of cyclosporine metabolism: 85%
[2]
  % inhibition of cyclosporine metabolism, repeat: -7 (9) % and -5 (2) %

## CCC=CCC1C(=O)CCC1CC(=O)OC (racemic) [Methyl Jasmonate-(±), Methyl-3-oxo-2-(2-pentenyl)-cyclopentane acetate]
[1]
  % inhibition of cyclosporine metabolism: -27%
Table 2, 0.001 wt. % component
  % inhibition of cyclosporine metabolism: 65%

## C=C1C2CCC(C2)C1(C)C (single isomer, unassigned) [Camphene-(+), 2,2-Dimethyl-3-methylenebicyclo[2.2.1]heptane]
[1]
  % inhibition of cyclosporine metabolism: -49%
Table 2, 0.001 wt. % component
  % inhibition of cyclosporine metabolism: 12.4%

## C=C(C)C1CC=C(C)C(O)C1 (single isomer, unassigned) [Carveol-(-), p-Mentha-6,8-dien-2-ol]
[1]
  % inhibition of cyclosporine metabolism: 2%
Table 2, 0.001 wt. % component
  % inhibition of cyclosporine metabolism: 60%

## CC=C(C)C=CC=C(C)C [Allo Ocimene, 2,6-Dimethyl-2,4,6-octatriene]
[1]
  % inhibition of cyclosporine metabolism: 6%
Table 2, 0.001 wt. % component
  % inhibition of cyclosporine metabolism: 22%

## C/C=C/c1ccc(OC)cc1 [Anethole, trans-, 4-Propenylanisole]
Table 2, 0.001 wt. % component
  % inhibition of cyclosporine metabolism: 53%
Table 2, 0.01 wt. % component
  % inhibition of cyclosporine metabolism: 100%

## O=C(/C=C/c1ccccc1)OCc1ccccc1 [Benzyl Cinnamate, Benzyl 3-phenylpropenoic acid]
[1]
  % inhibition of cyclosporine metabolism: 7%
Table 2, 0.001 wt. % component
  % inhibition of cyclosporine metabolism: -45%

## COc1cc(CNC(=O)CCCC/C=C/C(C)C)ccc1O [Capsaicin, trans-8-Methyl-N-vanillyl-6 nonenamide]
[1]
  % inhibition of cyclosporine metabolism: 27%
Table 2, 0.001 wt. % component
  % inhibition of cyclosporine metabolism: 68%

## CC1=CCC2C(C1)C2(C)C (centres unmarked) [Carene-3-(Δ)]
[1]
  % inhibition of cyclosporine metabolism: -26%
Table 2, 0.001 wt. % component
  % inhibition of cyclosporine metabolism: 34%

## Cc1ccc(C(C)C)cc1O [Carvacrol, 5-isoProply-2-methylphenol]
[1]
  % inhibition of cyclosporine metabolism: 11%
Table 2, 0.001 wt. % component
  % inhibition of cyclosporine metabolism: 93%
Table 2, 0.01 wt. % component
  % inhibition of cyclosporine metabolism: 97%

## C=C(C)[C@@H]1CC=C(C)C(=O)C1 [Carvone-(R)-(-), p-Mentha-6,8-dien-2-one]
[1]
  % inhibition of cyclosporine metabolism: 27%
Table 2, 0.001 wt. % component
  % inhibition of cyclosporine metabolism: 69%
Table 2, 0.01 wt. % component
  % inhibition of cyclosporine metabolism: 100%

## C=C(C)[C@H]1CC=C(C)C(=O)C1 [Carvone-(S)-(+), p-Mentha-6,8-dien-2-one]
[1]
  % inhibition of cyclosporine metabolism: 30%
Table 2, 0.001 wt. % component
  % inhibition of cyclosporine metabolism: 70.5%

## C=C1CC/C=C(\C)CC[C@@H]2[C@@H]1CC2(C)C [Caryophyllene, trans-(-), β Caryophyllene]
[1]
  % inhibition of cyclosporine metabolism: 26%
Table 2, 0.001 wt. % component
  % inhibition of cyclosporine metabolism: 85%

## O=C/C=C/c1ccccc1 [Cinnamic Aldehyde, trans-, 3-Phenylpropenaldehyde]
Table 2, 0.001 wt. % component
  % inhibition of cyclosporine metabolism: 29.0%
Table 2, 0.01 wt. % component
  % inhibition of cyclosporine metabolism: 78%

## CC(C)=CCC/C(C)=C/C=O [Citral]
[1]
  % inhibition of cyclosporine metabolism: 44%
Table 2, 0.001 wt. % component
  % inhibition of cyclosporine metabolism: 54%
Table 2, 0.01 wt. % component
  % inhibition of cyclosporine metabolism: 99%

## CC(C)=CCCC(C)CCO (stereo not drawn) [Citronellol-(DL)-(β), 3,7-Dimethyl-6-octen-1-ol]
[1]
  % inhibition of cyclosporine metabolism: 41%
Table 2, 0.001 wt. % component
  % inhibition of cyclosporine metabolism: 86%
Table 2, 0.01 wt. % component
  % inhibition of cyclosporine metabolism: 95%
[2]
  % inhibition of cyclosporine metabolism, repeat: 35 (4) %

## C=CCc1ccc(OC)cc1 [Estragole, 4-Allylanisole]
[1]
  % inhibition of cyclosporine metabolism: 7%
Table 2, 0.001 wt. % component
  % inhibition of cyclosporine metabolism: 69.2%
Table 2, 0.01 wt. % component
  % inhibition of cyclosporine metabolism: 100%

## CCOC(=O)/C=C/c1ccccc1 [Ethyl Cinnamate, trans-, Ethyl 3-phenylpropenoic acid]
[1]
  % inhibition of cyclosporine metabolism: -13%
Table 2, 0.001 wt. % component
  % inhibition of cyclosporine metabolism: -16%

## CCOc1cc(C=O)ccc1O [Ethyl Vanillin, 3-Ethoxy-4-hydroxybenzalehyde]
Table 2, 0.01 wt. % component
  % inhibition of cyclosporine metabolism: 58%

## C=CCc1ccc(O)c(OC)c1 [Eugenol, 4-Allyl-2-methoxyphenol]
[1]
  % inhibition of cyclosporine metabolism: 9.8%
Table 2, 0.001 wt. % component
  % inhibition of cyclosporine metabolism: 66%
Table 2, 0.01 wt. % component
  % inhibition of cyclosporine metabolism: 100%

## CC(C)=CCC/C(C)=C/CC/C(C)=C/CO [Farnesol, trans-, trans-, 3,7,11-Trimethyl-2,6,10-dodecatrien-1-ol]
[1]
  % inhibition of cyclosporine metabolism: 49%
Table 2, 0.001 wt. % component
  % inhibition of cyclosporine metabolism: 82%

## CC1(C)[C@H]2CC[C@](C)(C2)[C@H]1O [Fenchol-(1R)-endo-(+), 1,3,3-Trimethylbicyclo [2.2.1] heptan-2-ol]
[1]
  % inhibition of cyclosporine metabolism: 18%
Table 2, 0.001 wt. % component
  % inhibition of cyclosporine metabolism: 74%
Table 2, 0.01 wt. % component
  % inhibition of cyclosporine metabolism: 100%

## CC1(C)C(=O)[C@]2(C)CC[C@H]1C2 [Fenchone-(1R)-(-), 1,3,3-Trimethylbicyclo [2.2.1] heptan-2-one]
[1]
  % inhibition of cyclosporine metabolism: 14%
Table 2, 0.001 wt. % component
  % inhibition of cyclosporine metabolism: 38%

## CC(=O)OC/C=C(\C)CCC=C(C)C [Geranyl Acetate, trans-3,7-Dimethyl-2,6-octadien-1-yl acetate]
Table 2, 0.001 wt. % component
  % inhibition of cyclosporine metabolism: 51.5%
Table 2, 0.01 wt. % component
  % inhibition of cyclosporine metabolism: 73%

## CC/C=C\CC1=C(C)CCC1=O [Jasmone, cis-, 3-Methyl-2-(2-pentenyl)-2-cyclopenten-1-one]
[1]
  % inhibition of cyclosporine metabolism: 16.0%
Table 2, 0.001 wt. % component
  % inhibition of cyclosporine metabolism: 68%

## CC(=O)N1CCN(c2ccc(OCC3COC(Cn4ccnc4)(c4ccc(Cl)cc4Cl)O3)cc2)CC1 (centres unmarked) [Ketoconazole, reference compound]
Table 3, 0.000001%
  % inhibition of cyclosporine metabolism: 8%
Table 3, 0.000005%
  % inhibition of cyclosporine metabolism: 20%
Table 3, 0.00001%
  % inhibition of cyclosporine metabolism: 42%
Table 3, 0.00005%
  % inhibition of cyclosporine metabolism: 100%

## C=C(C)[C@H]1CC=C(C)CC1 [Limonene-(R)-(+), p-Mentha-1,8-diene]
Table 2, 0.001 wt. % component
  % inhibition of cyclosporine metabolism: 20%
Table 2, 0.01 wt. % component
  % inhibition of cyclosporine metabolism: 84%

## C=C(C)[C@@H]1CC=C(C)CC1 [Limonene-(S)-(-), p-Mentha-1,8-diene]
Table 2, 0.001 wt. % component
  % inhibition of cyclosporine metabolism: 30%
Table 2, 0.01 wt. % component
  % inhibition of cyclosporine metabolism: 82.3%

## C=CC(C)(CCC=C(C)C)OC(C)=O (centres unmarked) [Linalyl Acetate, 3,7-Dimethyl-1,6-octadien-3-yl acetate]
Table 2, 0.001 wt. % component
  % inhibition of cyclosporine metabolism: 55.8%
Table 2, 0.01 wt. % component
  % inhibition of cyclosporine metabolism: 100%

## CC(C)[C@@H]1CC[C@@H](C)CC1=O [Menthone-(-), p-Menthan-3-one]
[1]
  % inhibition of cyclosporine metabolism: 14%
Table 2, 0.001 wt. % component
  % inhibition of cyclosporine metabolism: 52%

## COC(=O)c1ccccc1N [Methyl Anthranilate, Methyl 2-aminobenzoate]
[1]
  % inhibition of cyclosporine metabolism: -7%
Table 2, 0.001 wt. % component
  % inhibition of cyclosporine metabolism: 23%

## C=CC(=C)CCC=C(C)C [Myrcene-β, 7-Methyl-3-methylene-1,6-octadiene]
[1]
  % inhibition of cyclosporine metabolism: 0%
Table 2, 0.001 wt. % component
  % inhibition of cyclosporine metabolism: 13%

## C=C1CC[C@H]2C[C@@H]1C2(C)C [Pinene-(1S)-(-)-β, 6,6-Dimethyl-2-methylenebicyclo[3.1.1]heptane]
[1]
  % inhibition of cyclosporine metabolism: -10%
Table 2, 0.001 wt. % component
  % inhibition of cyclosporine metabolism: 60%
Table 2, 0.01 wt. % component
  % inhibition of cyclosporine metabolism: 88%

## CC(C)=C1CC[C@@H](C)CC1=O [Pulegone-(R)-(+), p-Menth-4(8)-en-3-one]
[1]
  % inhibition of cyclosporine metabolism: -17%
Table 2, 0.001 wt. % component
  % inhibition of cyclosporine metabolism: 31%

## CC1=CCC(O)(C(C)C)CC1 (centres unmarked) [Terpinen-4-ol, p-Menth-1-en-4-ol]
[1]
  % inhibition of cyclosporine metabolism: 3.81%
Table 2, 0.001 wt. % component
  % inhibition of cyclosporine metabolism: 80%
Table 2, 0.01 wt. % component
  % inhibition of cyclosporine metabolism: 100%

## CC1=CC=C(C(C)C)CC1 [Terpinene-α, p-Mentha-1,3-diene]
[1]
  % inhibition of cyclosporine metabolism: -6%
Table 2, 0.001 wt. % component
  % inhibition of cyclosporine metabolism: 28%

## CC1=CCC(C(C)(C)O)CC1 (stereo not drawn) [Terpineol-α, p-Menth-1-en-8-ol]
[1]
  % inhibition of cyclosporine metabolism: 13.4%
Table 2, 0.001 wt. % component
  % inhibition of cyclosporine metabolism: 86%
Table 2, 0.01 wt. % component
  % inhibition of cyclosporine metabolism: 100%
